Reference: ChEMBL document CHEMBL3507680, “University of Dundee, Gates Library screen for HepG2 cell viability”

Test: Human HepG2 cell viability assay in 384 well format
Format: toxicity, cell-based
Design: dose 125 nL, time 70.5 hour; concentration not given beside the values
Conditions: HepG2 cells, read-out: Inhibition

Row | SMILES | cytotoxicity at 70.5 h
1 | CS(=O)(=O)NCC1CCCCN1C(=O)Nc1cccnc1N1CCCC1 (centres undefined) | 39.8%
2 | Cc1ccc(S(=O)(=O)NC(=O)c2c(C)noc2C(C)C)cc1C | 0.282%
3 | Cc1cc(C2CCCN(C(=O)c3c(C)noc3C)C2)n[nH]1 (centres undefined) | -5.28%
4 | CC(NC(=O)c1nc(=O)[nH][nH]1)c1ccc(OCC2CC2)c(F)c1 (centres undefined) | 29.1%
5 | COCCn1ccc(NC(=O)Nc2ccc(C(N)=O)c(F)c2)n1 | 13.6%
6 | COCC(=O)N(C)Cc1cccc(Cl)c1 | 38.1%
7 | CN1N=C(C(=O)N(Cc2ccco2)C2CC2)CCC1=O | -9.82%
8 | CCOc1nnc(CN(C)C2CCCN(c3cccnn3)C2)s1 (centres undefined) | 3.52%
9 | CC1CN(CC(=O)NC(=O)NCc2ccccc2)CCO1 (centres undefined) | 7.19%
10 | CC(COc1ccc(F)cc1F)NC(=O)NCCN1CCOCC1 (centres undefined) | -16%
11 | CCc1noc(C(C)N2CCN(c3ccc(C#N)cc3F)CC2)n1 (centres undefined) | -24.4%
12 | Cc1cc(N2CCN(CC(=O)N(C)C)CC2)nc(-c2ccncc2)n1 | 27.8%
13 | NC(=O)C(CNC(=O)Cc1ccc(F)cc1)Cc1ccc(F)cc1 (centres undefined) | -7.46%
14 | CCn1cnnc1C1CCN(C(=O)c2ccc3cc[nH]c3c2)CC1 | 5.48%
15 | Cc1cc(N2CCN(CCO)CC2)nc(-c2ccncc2)n1 | 0.374%
16 | CC(C)NC(=O)Nc1ccc(CS(=O)(=O)C(C)(C)C)cc1 | -12.3%
17 | CCOC(=O)c1c(NC(=O)CN2CCN(C(C)=O)CC2)sc2c1CCC2 | -0.965%
18 | CCc1nc2n(n1)CC(NCc1nc(C)ccc1O)CC2 (centres undefined) | -8.85%
19 | Cc1ccc(CC2CCCN2CC(=O)NCc2ccccn2)cc1 (centres undefined) | 15.4%
20 | CCOc1cccc(C(=O)NCCC(=O)Nc2ccncc2)c1 | -19.4%
21 | CC(C)Cc1cc(C(=O)NCc2nnc[nH]2)[nH]n1 | -13.4%
22 | Cc1cc(C(=O)N2CCCC(n3ccnc3C)C2)c(C)s1 (centres undefined) | -11.2%

Row | SMILES | cytotoxicity at 70.5 h
23 | CC(C)c1nc2n(n1)CC(NCc1ccncc1)CC2 (centres undefined) | -16.7%
24 | CCc1cnc(CN(C)C2CCN(CCc3ccccn3)C2)o1 (centres undefined) | 10.2%
25 | CN(C)C(C)(C)CNC(=O)C(C)(C)c1ccccc1F | 4.83%
26 | Cc1nc(CN2CCCC(N(C)CCc3cccs3)C2)no1 (centres undefined) | 8.18%
27 | COc1ccc(CNC(=O)C2(C#N)CCCC2)cc1 | 12.6%
28 | CN(CCCC#N)C1CCCN(Cc2noc(C3CC3)n2)C1 (centres undefined) | 9.15%
29 | COCCN1C(=O)CC(N2CCN(c3ccc(OC)cc3)CC2)C1=O (centres undefined) | -7.1%
30 | COc1ccc(C2CCCCCN2S(=O)(=O)N(C)C)cc1 (centres undefined) | -7.96%
31 | COc1cc(CN(C)C(=O)Cc2c(C)nn(C)c2C)ccc1OC(F)F | 3.07%
32 | CN1CCN(CCCNC(=O)c2cc(Cl)c3c(c2)OCO3)CC1 | -6.03%
33 | O=C(Nc1cccc(CN2CCOC2=O)c1)N1CCSCC1 | -10.5%
34 | CC(C)NC(=O)c1nnn(-c2cccc(C(F)(F)F)c2)c1C1CC1 | 10.4%
35 | CC1CCCN(CCNC(=O)c2cncnc2C(C)C)C1 (centres undefined) | -4.07%
36 | CN(C)C(=O)c1cccc(NC(=O)N(CCO)Cc2ccsc2)c1 | -4.45%
37 | CC(C)CN1CCC(NC(=O)c2ccc(F)cc2I)CC1 | 11.3%
38 | CCCN(CC(=O)NC)C(=O)c1ccc(-c2ccsc2)nc1C | -4.88%
39 | COc1ccc(CNC(=O)NC2CCC(O)CC2)c(C(F)(F)F)c1 (centres undefined) | -4.62%
40 | COc1ccc(CNC(=O)NCC2CCOC2)c(C(F)(F)F)c1 (centres undefined) | -2.53%
41 | Cc1nc(C)n(CC2CN(CC(=O)Nc3cccnc3)CCO2)n1 (centres undefined) | -2.68%
42 | O=C(CCc1cscn1)NS(=O)(=O)c1ccc2c(c1)CCC2 | 8.97%
43 | CCc1cnc(CN(C)C2CCN(CCS(C)(=O)=O)C2)o1 (centres undefined) | -6.45%
44 | N#CC1(C(=O)Nc2ccc(OC(F)F)cc2)CCCC1 | 8%

Row | SMILES | cytotoxicity at 70.5 h
45 | Cc1cc(F)ccc1CNCCn1cccn1 | -1.75%
46 | COc1cccc(CNCCc2cc(F)cc3c2OCOC3)c1 | 14.9%
47 | COc1ccc(C2CCCN2S(=O)(=O)N(C)CC(C)C)cc1 (centres undefined) | -1.91%
48 | Cc1ccc(C(=O)N2CCCC2c2nnc3n2CCCCC3)o1 (centres undefined) | -7.2%
49 | O=C(CN1CCCC1Cn1cncn1)NC(C1CC1)C1CC1 (centres undefined) | -4.54%
50 | Cc1nc(CN2CCC(N(C)Cc3noc(C(C)C)n3)C2)cs1 (centres undefined) | 33.4%
51 | Cc1nn(C)c(C)c1C1COCCN1C(=O)Cc1cccc(F)c1 (centres undefined) | 12.5%
52 | O=C(CC(F)(F)F)N1CCc2onc(Cn3cccn3)c2C1 | -13.4%
53 | O=C(Cc1ccccn1)N1C[C@H]2CCC[C@@]2(COc2ccccn2)C1 | 6.94%
54 | O=C1CC(c2ccncc2)C2(CCN(Cc3nccs3)CC2)N1 (centres undefined) | -7.32%
55 | O=C1CC(c2ccncc2)C2(CCN(Cc3cccnc3)CC2)N1 (centres undefined) | -6.24%
56 | CNC(=O)[C@H]1C[C@@H]2CCN(Cc3ccc4c(c3)OCO4)C[C@@H]2O1 | -7.08%
57 | CN(C)C(=O)[C@H]1C[C@@H]2CCN(Cc3ccncc3)C[C@H]2O1 | -7.62%
58 | O=C(C1CCC1)N1CCc2onc(Cn3cccn3)c2C1 | 17.9%
59 | c1cnc(N2CCO[C@H]3[C@H](OCc4cccnc4)CC[C@@H]32)nc1 | 13.6%
60 | c1ccc(CO[C@H]2CC[C@H]3[C@H]2OCCN3CCN2CCCCC2)nc1 | 20.6%
61 | CCC(CC)NC(=O)c1ccc2nnc(C3CCN(S(C)(=O)=O)C3)n2c1 (centres undefined) | 6.79%
62 | COc1cc(N2C[C@H](OCc3cccnc3)[C@H]3OCCC[C@H]32)ncn1 | 3.36%
63 | O=C(NC1CCCC1)N1CCC2(CC1)CC(Oc1cccnc1)CO2 (centres undefined) | 26.9%
64 | Cc1cccc(N2CCC3(CCCN(C(=O)Cc4cccnc4)C3)C2)n1 (centres undefined) | 21.3%
65 | Cc1ccc(N2CCC3(CCCN(C(=O)c4cnccn4)C3)C2)nn1 (centres undefined) | 1.5%
66 | Cc1ccc(N2CCC3(CCN(C(=O)c4ccsc4)CC3)C2)nn1 | 4.86%

Row | SMILES | cytotoxicity at 70.5 h
67 | CNC(=O)CC1CC2(CCN(S(C)(=O)=O)CC2)c2ccccc21 (centres undefined) | -0.621%
68 | Cn1cc(CN2CCCC3(CCN3S(C)(=O)=O)C2)cn1 (centres undefined) | 7.75%
69 | CC(=O)c1cnc(NCCc2csc(-c3cnccn3)n2)nc1C | -10.8%
70 | CC(C)Cc1ncc2c(n1)CN(c1cc(N3CCCC3)nc(N)n1)C2 | 1.59%
71 | COc1ccnc(N2CCC3(CC2)[C@H](O)C[C@@H]3OCCN(C)C)n1 | 2.31%
72 | O=C(c1ccc(-n2cnnc2)cc1Cl)N1CCCC2(CCNC2)C1 (centres undefined) | 2.05%
73 | CN(C)C(=O)[C@H]1C[C@H]2[C@H](CCN2Cc2ccc3c(c2)OCO3)O1 | -14.7%
74 | Cc1ccc(CN2CC[C@H]3C[C@H](C(=O)N(C)C)O[C@H]3C2)cc1 | -17.2%
75 | O=C(c1ccco1)N1C[C@H]2CCCN(Cc3nccs3)[C@H]2C1 | -11.3%
76 | O=C(c1cnccn1)N1CCC2(CC1)CCN(Cc1ccccn1)C2=O | 19.9%
77 | Cc1ccc(C(=O)N2Cc3c(CN(C)C)nn(C)c3C2)cc1C | 4.85%
78 | Cc1ccc(C(=O)N2Cc3c(CN4CCCCC4)nn(C)c3C2)o1 | 6.3%
79 | O=C1COC2(CCN(C(=O)c3ccoc3)CC2)CN1Cc1ccccn1 | -0.827%
80 | CN(C)C(=O)N1CCC2(CC1)CCN(Cc1ccccn1)C2=O | 25.9%
81 | CN(C)C(=O)N1CCC2(CC1)CN(Cc1ccccn1)C(=O)CO2 | 24.4%
82 | O=C1COC2(CCN(C(=O)C3CC=CC3)CC2)CN1Cc1cccnc1 | 12.1%
83 | Cn1nc(CN2CCCCC2)c2c1CN(C(=O)c1cccc(C#N)c1)C2 | 15.7%
84 | Cc1cccc(-c2nnn3c2COC(CNCc2nccs2)C3)c1 (centres undefined) | -3.21%
85 | Cc1nc(CN2CCCn3c(nc(Cn4cncn4)cc3=O)C2)cs1 | 22.5%
86 | Cc1oncc1C(=O)NCc1cc(=O)n2c(n1)CN(CC1CC1)CCC2 | 17.8%
87 | CN1CC(=O)N(c2ccccc2)CC12CCN(C(=O)CC1CC1)C2 (centres undefined) | 8.17%
88 | Cc1ccc(N2CCC3(CCN(C(=O)c4ccsc4)C3)CC2)nn1 | -12.9%

Row | SMILES | cytotoxicity at 70.5 h
89 | Cc1noc(C)c1CN1CCO[C@H]2CN(C3CCOCC3)C[C@H]21 | 21.3%
90 | COCCN1CCCn2c(nc(Cn3cncn3)cc2=O)C1 | 19.3%
91 | Cc1ccc(N2CCC3(CCN(C(=O)c4ccnnc4)CC3)CC2)nn1 | 2.95%
92 | O=C(NCc1ccco1)[C@@H]1CCO[C@@H]2CCN(C3CCOCC3)C[C@H]21 | 4.93%
93 | CN1CC(=O)N(c2ccsc2)CC12CCN(C(=O)N1CCCC1)C2 (centres undefined) | -7.42%
94 | Cc1cc(C(=O)N2CCC3(C2)CN(c2ccsc2)C(=O)CN3C)[nH]n1 (centres undefined) | -7.61%
95 | O=C(NCc1ccco1)[C@@H]1CCO[C@@H]2CCN(CC3CC3)C[C@@H]21 | -6.8%
96 | CN1CCC2(CC1)CN(C(=O)c1cnccn1)Cc1ccccc12 | -5.07%
97 | CN(C)C[C@H]1OC[C@@H]2CCN(S(=O)(=O)c3ccc(F)cc3)C[C@@H]21 | -7.32%
98 | CN1CC(=O)N(c2ccccc2)CC12CCN(C(=O)c1cccs1)C2 (centres undefined) | -5.55%
99 | CN1CCOCC2(CCCN(C(=O)Cc3ccncc3)C2)C1 (centres undefined) | -11.6%
100 | CCOCC1CN(CC2CC2)Cc2nn(C)cc21 (centres undefined) | -4.39%
101 | Cc1cccc(CN2C[C@@H]3COC[C@]3(CNC(=O)c3ccno3)C2)n1 | 7.45%
102 | Cn1nnc2c1C(COCc1cccnc1)CN(Cc1ccoc1)C2 (centres undefined) | -16.5%
103 | Cc1nc(CO[C@H]2CN(Cc3ccccn3)[C@@H]3CCCO[C@H]23)cs1 | 6.92%
104 | Cc1nc(CN2CCO[C@H]3[C@@H](OCc4cccnc4)CC[C@@H]32)cs1 | 4.04%
105 | Cc1noc(C)c1CN1CCO[C@H]2CN(Cc3nccn3C)C[C@H]21 | 0.477%
106 | c1cnc(N2CCC3(CCN(CC4CCCC4)CC3)C2)nc1 | -1.07%
107 | Cc1noc(C)c1CN1CCO[C@H]2CN(Cc3cnn(C)c3)C[C@H]21 | -4.66%
108 | COc1ncccc1C(=O)N1CC[C@]2(C[C@@H](Oc3cccnc3)CO2)C1 | 25.3%
109 | Cc1ccc(C(=O)N2CCN3C[C@H](Oc4cccnc4)C[C@H]3C2)cn1 | 4.6%
